Measured values from patent US9546152B2 (MERCK SHARP & DOHME CORP., priority 2012, dated 2017).

Experiments:
rat orexin-1 receptor = rat orexin-1 receptor (Rattus norvegicus (Rat), UniProt P56718); assay: FLIPR Ca2+ Flux Assay, orexin-1 receptor; assay type: cell-based; conditions: CHO cells expressing the rat orexin-1 receptor; agonist 70 pM Ala-6,12 human orexin-A; read-out: hOX1R FLIPR IC50
Description: (§1) In a typical experiment the OX1 and OX2 receptor antagonistic activity of the compounds of the present invention was determined in accordance with the following experimental method. For intracellular calcium measurements, Chinese hamster ovary (CHO) cells expressing the rat orexin-1 receptor or the human orexin-2 receptor, are grown in Iscove's modified DMEM containing 2 mM L-glutamine, […], 1% hypoxanthine-thymidine supplement, 100 U/ml penicillin, 100 μg/ml streptomycin and 10% heat-inactivated fetal calf serum (FCS). The cells are seeded at 20,000 cells/well into Becton-Dickinson black 384-well clear bottom sterile plates coated with poly-D-lysine. All reagents were from GIBCO-Invitrogen Corp. The seeded plates are incubated overnight at 37° C. and 5% CO2. Ala-6,12 human orexin-A as the agonist is prepared as a 1 mM stock solution in 1% bovine serum albumin (BSA) and diluted in assay buffer (HBSS containing 20 mM HEPES, 0.1% BSA and 2.5 mM probenecid, pH7.4) for use in the assay at a final concentration of 70 pM. Test compounds are prepared as 10 mM stock solution in DMSO, then diluted in 384-well plates, first in DMSO, then assay buffer. On the day of the assay, cells are washed 3 times with 100 μl assay buffer and then incubated for 60 min (37° C., 5% CO2) in 60 μl assay buffer containing 1 μM Fluo-4AM ester, 0.02% pluronic acid, and 1% BSA. The dye loading solution is then aspirated and cells are washed 3 times with 100 μl assay buffer. 30 μl of that same buffer is left in each well. Within the Fluorescent Imaging Plate Reader (FLIPR, Molecular Devices), test compounds are added to the plate in a volume of 25 μl, incubated for 5 min and finally 25 μl of agonist is added. Fluorescence is measured for each well at 1 second intervals for 5 minutes and the height of each fluorescence peak is compared to the height of the fluorescence peak induced by 70 pM Ala-6,12 orexin-A with buffer in place of antagonist. […] Alternatively, compound potency can be assessed by a radioligand binding assay (described in Bergman et. al. Bioorg. Med. Chem. Lett. 2008, 18, 1425-1430) in which the inhibition constant (Ki) is determined in membranes prepared from CHO cells expressing either the OX1 or OX2 receptor. The intrinsic orexin receptor antagonist activity of a compound which may be used in the present invention may be determined by these assays.

human orexin-2 receptor [1] = molecular target: T1, human orexin-2 receptor (Homo sapiens (Human), UniProt O43614); assay: FLIPR Ca2+ Flux Assay, orexin-2 receptor; assay type: cell-based; conditions: CHO cells expressing the human orexin-2 receptor; agonist 70 pM Ala-6,12 human orexin-A; read-out: hOX2R FLIPR IC50
Description: as §1

human orexin-2 receptor [2] = molecular target: T1, human orexin-2 receptor; assay: radioligand binding assay, orexin-2 receptor; conditions: membranes prepared from CHO cells expressing the OX2 receptor; read-out: hOX2R BIND hKi
Description: as §1

T1 sequence (O43614 whole entry): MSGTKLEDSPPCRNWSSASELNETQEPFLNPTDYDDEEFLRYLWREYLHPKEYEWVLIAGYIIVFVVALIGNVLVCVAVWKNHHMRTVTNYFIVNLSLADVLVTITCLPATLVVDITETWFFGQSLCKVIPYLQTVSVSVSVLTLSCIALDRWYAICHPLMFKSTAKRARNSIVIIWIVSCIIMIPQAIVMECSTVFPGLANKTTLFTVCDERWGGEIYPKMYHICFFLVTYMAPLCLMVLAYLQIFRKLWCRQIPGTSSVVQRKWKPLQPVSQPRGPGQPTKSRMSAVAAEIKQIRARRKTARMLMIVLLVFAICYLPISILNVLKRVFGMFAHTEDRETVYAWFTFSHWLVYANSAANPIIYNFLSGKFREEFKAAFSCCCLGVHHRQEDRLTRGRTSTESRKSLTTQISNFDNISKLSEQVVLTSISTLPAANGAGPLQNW
Sequence of rat orexin-1 receptor (P56718 whole entry): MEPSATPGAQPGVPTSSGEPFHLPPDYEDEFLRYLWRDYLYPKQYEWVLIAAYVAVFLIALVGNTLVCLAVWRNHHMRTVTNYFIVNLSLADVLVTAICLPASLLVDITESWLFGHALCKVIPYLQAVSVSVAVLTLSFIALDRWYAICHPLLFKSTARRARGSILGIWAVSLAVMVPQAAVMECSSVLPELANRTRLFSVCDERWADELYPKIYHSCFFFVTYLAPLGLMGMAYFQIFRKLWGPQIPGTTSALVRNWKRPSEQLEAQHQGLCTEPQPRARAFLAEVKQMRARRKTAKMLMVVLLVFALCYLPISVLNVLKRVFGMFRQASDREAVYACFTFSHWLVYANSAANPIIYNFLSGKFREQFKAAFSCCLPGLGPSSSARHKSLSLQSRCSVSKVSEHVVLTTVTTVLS

`Cc1c(C#N)ccnc1O[C@@H]1CC[C@@H](C)N(C(=O)c2ccccc2-n2nccn2)C1` [Example 1, 3-Methyl-2-{[(3R,6R)-6-methyl-1-{[2-(2H-1,2,3-triazol-2-yl)phenyl]carbonyl}piperidin-3-yl]oxy}pyridine-4-carbonitrile] gave an IC50 (rat orexin-1 receptor) of 996 nM, an IC50 (human orexin-2 receptor [1]) of 8 nM and a Ki (human orexin-2 receptor [2]) of 0.4 nM.
Work on `COc1ccc(C(=O)N2C[C@H](Oc3nccc(C#N)c3C)CC[C@H]2C)c(-n2nccn2)n1` [Example 2, 2-{[(3R,6R)-1-{[6-Methoxy-2-(2H-1,2,3-triazol-2-yl)pyridin-3-yl]carbonyl}-6-methylpiperidin-3-yl]oxy}-3-methylpyridine-4-carbonitrile] yielded an IC50 (rat orexin-1 receptor) of 5930 nM, an IC50 (human orexin-2 receptor [1]) of 21 nM and a Ki (human orexin-2 receptor [2]) of 3 nM.
For `Cc1c(C#N)ccnc1O[C@@H]1CC[C@@H](C)N(C(=O)c2cc(Cl)ccc2-n2nccn2)C1` [Example 3, 2-{[(3R,6R)-1-{[5-chloro-2-(2H-1,2,3-triazol-2-yl)phenyl]carbonyl}-6-methylpiperidin-3-yl]oxy}-3-methylpyridine-4-carbonitrile], the IC50 (rat orexin-1 receptor) was 4730 nM, the IC50 (human orexin-2 receptor [1]) was 128 nM and the Ki (human orexin-2 receptor [2]) was 11.7 nM.
For `Cc1ccc(-n2nccn2)c(C(=O)N2C[C@H](Oc3nccc(C#N)c3C)CC[C@H]2C)c1` [Example 6, 3-methyl-2-{[(3R,6R)-6-methyl-1-{[5-methyl-2-(2H-1,2,3-triazol-2-yl)phenyl]carbonyl}piperidin-3-yl]oxy}pyridine-4-carbonitrile], the IC50 (rat orexin-1 receptor) was 292 nM, the IC50 (human orexin-2 receptor [1]) was 7 nM and the Ki (human orexin-2 receptor [2]) was 0.6 nM.
`Cc1ccc(C(=O)N2C[C@H](Oc3nccc(C#N)c3C)CC[C@H]2C)c(-n2nccn2)c1` [Example 8, 3-methyl-2-{[(3R,6R)-6-methyl-1-{[4-methyl-2-(2H-1,2,3-triazol-2-yl)phenyl]carbonyl}piperidin-3-yl]oxy}pyridine-4-carbonitrile] showed an IC50 (rat orexin-1 receptor) of 861 nM, an IC50 (human orexin-2 receptor [1]) of 11 nM and a Ki (human orexin-2 receptor [2]) of 0.6 nM.
`Cc1c(C#N)ccnc1O[C@@H]1CC[C@@H](C)N(C(=O)c2ccc(F)cc2-n2nccn2)C1` [Example 9, 2-{[(3R,6R)-1-{[4-fluoro-2-(2H-1,2,3-triazol-2-yl)phenyl]carbonyl}-6-methylpiperidin-3-yl]oxy}-3-methylpyridine-4-carbonitrile] showed an IC50 (rat orexin-1 receptor) of 1080 nM, an IC50 (human orexin-2 receptor [1]) of 12 nM and a Ki (human orexin-2 receptor [2]) of 0.5 nM.
With `Cc1c(C#N)ccnc1O[C@@H]1CC[C@@H](C)N(C(=O)c2cnccc2-n2nccn2)C1` [Example 10, 3-methyl-2-{[(3R,6R)-6-methyl-1-{[4-(2H-1,2,3-triazol-2-yl)pyridin-3-yl]carbonyl}piperidin-3-yl]oxy}pyridine-4-carbonitrile] the IC50 (rat orexin-1 receptor) was 7070 nM, the IC50 (human orexin-2 receptor [1]) was 55 nM and the Ki (human orexin-2 receptor [2]) was 8.1 nM.
For `Cc1c(C#N)ccnc1O[C@@H]1CC[C@@H](C)N(C(=O)c2c(F)cccc2-n2nccn2)C1` [Example 11, 2-{[(3R,6R)-1-{[2-fluoro-6-(2H-1,2,3-triazol-2-yl)phenyl]carbonyl}-6-methylpiperidin-3-yl]oxy}-3-methylpyridine-4-carbonitrile], the IC50 (rat orexin-1 receptor) was 611 nM, the IC50 (human orexin-2 receptor [1]) was 10 nM and the Ki (human orexin-2 receptor [2]) was 0.3 nM.
`Cc1cccc(C(=O)N2C[C@H](Oc3nccc(C#N)c3C)CC[C@H]2C)c1-n1nccn1` [Example 13, 3-methyl-2-{[(3R,6R)-6-methyl-1-{[3-methyl-2-(2H-1,2,3-triazol-2-yl)phenyl]carbonyl}piperidin-3-yl]oxy}pyridine-4-carbonitrile] was tested, and the IC50 (rat orexin-1 receptor) was 215 nM, the IC50 (human orexin-2 receptor [1]) was 9 nM and the Ki (human orexin-2 receptor [2]) was 0.2 nM.
Work on `COc1cccc(-n2nccn2)c1C(=O)N1C[C@H](Oc2nccc(C#N)c2C)CC[C@H]1C` [Example 14, 2-{[(3R,6R)-1-{[2-methoxy-6-(2H-1,2,3-triazol-2-yl)phenyl]carbonyl}-6-methylpiperidin-3-yl]oxy}-3-methylpyridine-4-carbonitrile] yielded an IC50 (rat orexin-1 receptor) of 507 nM, an IC50 (human orexin-2 receptor [1]) of 15 nM and a Ki (human orexin-2 receptor [2]) of 0.2 nM.
Molecule `Cc1cccc(-n2nccn2)c1C(=O)N1C[C@H](Oc2nccc(C#N)c2C)CC[C@H]1C` [Example 15, 3-methyl-2-{[(3R,6R)-6-methyl-1-{[2-methyl-6-(2H-1,2,3-triazol-2-yl)phenyl]carbonyl}piperidin-3-yl]oxy}pyridine-4-carbonitrile] has an IC50 (rat orexin-1 receptor) of 693 nM, an IC50 (human orexin-2 receptor [1]) of 12 nM and a Ki (human orexin-2 receptor [2]) of 0.2 nM.
`Cc1c(C#N)ccnc1O[C@@H]1CC[C@@H](C)N(C(=O)c2ccccc2C2CC2)C1` [Example 16, 2-({(3R,6R)-1-[(2-cyclopropylphenyl)carbonyl]-6-methylpiperidin-3-yl}oxy)-3-methylpyridine-4-carbonitrile] was tested, and the IC50 (rat orexin-1 receptor) was 1740 nM, the IC50 (human orexin-2 receptor [1]) was 9 nM and the Ki (human orexin-2 receptor [2]) was 0.7 nM.
`Cc1c(C#N)ccnc1O[C@@H]1CC[C@@H](C)N(C(=O)c2ccccc2C(F)(F)F)C1` [Example 17, 3-methyl-2-{[(3R,6R)-6-methyl-1-{[2-(trifluoromethyl)phenyl]carbonyl}piperidin-3-yl]oxy}pyridine-4-carbonitrile] showed an IC50 (rat orexin-1 receptor) of 4960 nM, an IC50 (human orexin-2 receptor [1]) of 21 nM and a Ki (human orexin-2 receptor [2]) of 3.1 nM.
In the case of `CCOc1ccccc1C(=O)N1C[C@H](Oc2nccc(C#N)c2C)CC[C@H]1C` [Example 19, 2-({(3R,6R)-1-[(2-ethoxyphenyl)carbonyl]-6-methylpiperidin-3-yl}oxy)-3-methylpyridine-4-carbonitrile], the IC50 (rat orexin-1 receptor) is reported as 2100 nM, the IC50 (human orexin-2 receptor [1]) is reported as 6 nM and the Ki (human orexin-2 receptor [2]) is reported as 0.7 nM.
Molecule `Cc1c(C#N)ccnc1O[C@@H]1CC[C@@H](C)N(C(=O)c2c(F)cccc2-c2cscn2)C1` [Example 22, 2-{[(3R,6R)-1-{[2-fluoro-6-(1,3-thiazol-4-yl)phenyl]carbonyl}-6-methylpiperidin-3-yl]oxy}-3-methylpyridine-4-carbonitrile] has an IC50 (rat orexin-1 receptor) of 991 nM, an IC50 (human orexin-2 receptor [1]) of 20 nM and a Ki (human orexin-2 receptor [2]) of 0.3 nM.
Molecule `Cc1c(C#N)ccnc1O[C@@H]1CC[C@@H](C)N(C(=O)c2ncccc2-c2cscn2)C1` [Example 24, 3-methyl-2-{[(3R,6R)-6-methyl-1-{[3-(1,3-thiazol-4-yl)pyridin-2-yl]carbonyl}piperidin-3-yl]oxy}pyridine-4-carbonitrile] has an IC50 (rat orexin-1 receptor) of 4900 nM, an IC50 (human orexin-2 receptor [1]) of 24 nM and a Ki (human orexin-2 receptor [2]) of 3.8 nM.
Work on `Cc1c(C#N)ccnc1O[C@@H]1CC[C@@H](C)N(C(=O)c2cc(F)ncc2-c2cncs2)C1` [Example 25, 2-{[(3R,6R)-1-{[2-fluoro-5-(1,3-thiazol-5-yl)pyridin-4-yl]carbonyl}-6-methylpiperidin-3-yl]oxy}-3-methylpyridine-4-carbonitrile] yielded an IC50 (rat orexin-1 receptor) of over 10000 nM, an IC50 (human orexin-2 receptor [1]) of 43 nM and a Ki (human orexin-2 receptor [2]) of 6.1 nM.
In the case of `Cc1c(C#N)ccnc1O[C@@H]1CC[C@@H](C)N(C(=O)c2cc(F)ccc2-c2cscn2)C1` [Example 26, 2-{[(3R,6R)-1-{[5-fluoro-2-(1,3-thiazol-4-yl)phenyl]carbonyl}-6-methylpiperidin-3-yl]oxy}-3-methylpyridine-4-carbonitrile], the IC50 (rat orexin-1 receptor) is reported as 967 nM, the IC50 (human orexin-2 receptor [1]) is reported as 10 nM and the Ki (human orexin-2 receptor [2]) is reported as 0.6 nM.
Work on `Cc1c(C#N)ccnc1O[C@@H]1CC[C@@H](C)N(C(=O)c2cc(F)ccc2-c2nccs2)C1` [Example 28, 2-{[(3R,6R)-1-{[5-fluoro-2-(1,3-thiazol-2-yl)phenyl]carbonyl}-6-methylpiperidin-3-yl]oxy}-3-methylpyridine-4-carbonitrile] yielded an IC50 (rat orexin-1 receptor) of 412 nM, an IC50 (human orexin-2 receptor [1]) of 5 nM and a Ki (human orexin-2 receptor [2]) of 0.1 nM.
In the case of `Cc1c(C#N)ccnc1O[C@@H]1CC[C@@H](C)N(C(=O)c2ccccc2N2CCCC2)C1` [Example 29, 3-methyl-2-({(3R,6R)-6-methyl-1-[(2-pyrrolidin-1-ylphenyl)carbonyl]piperidin-3-yl}oxy)pyridine-4-carbonitrile], the IC50 (rat orexin-1 receptor) is reported as 3100 nM, the IC50 (human orexin-2 receptor [1]) is reported as 29 nM and the Ki (human orexin-2 receptor [2]) is reported as 3.4 nM.
With `COc1c(C#N)ccnc1O[C@@H]1CC[C@@H](C)N(C(=O)c2ccsc2-c2ncccn2)C1` [Example 108, 3-methoxy-2-({(3R,6R)-6-methyl-1-[(2-pyrimidin-2-ylthiophen-3-yl)carbonyl]piperidin-3-yl}oxy)pyridine-4-carbonitrile] the IC50 (rat orexin-1 receptor) was 713 nM and the IC50 (human orexin-2 receptor [1]) was 14 nM.
For `COc1ccc(C(=O)N2C[C@H](Oc3nccc(C#N)c3OC)CC[C@H]2C)c(-c2ncccn2)n1` [Example 113, 3-methoxy-2-({(3R,6R)-1-[(6-methoxy-2-pyrimidin-2-ylpyridin-3-yl)carbonyl]-6-methylpiperidin-3-yl}oxy)pyridine-4-carbonitrile], the IC50 (rat orexin-1 receptor) was 10000 nM and the IC50 (human orexin-2 receptor [1]) was 108 nM.
